Assay results published in patent US4965280A, “Antifungal carbinols” (E. I. Du Pont de Nemours and Company, priority 1989, dated 1990).

Tests used:
Experiment in all cases: Test D
REDROOT PIGWEED = assay type: in vivo, Amaranthus retroflexus
COCKLEBUR = assay type: in vivo, Xanthium pensylvanicum
WILLMS SOYBEANS = assay type: in vivo, Glycine max
LADY SMARTWEED = assay type: in vivo, Polygonum persicaris
Procedure: (§1) The Corn and Sorghum Herbicide Test included the following species in both the preemergence and postemergence evaluations:
(§2) Postemergence plantings were grown in Sassafras sandy loam soil. Corn and soybeans were grown in separate 25 cm diameter containers. Sorghum and the seven grass weed species were grown in two 18 cm diameter containers, 4 species per container. The seven broadleaf weed species were also grown in two 18 cm diameter containers, 4 species in one container, 3 species in the second container. One additional planting of corn in an 18 cm diameter container was made. The soil surface of this additional container of corn was covered with the absorbent, perlite, before spray treatment so that test chemicals would enter the plant only via the foliage. The plants were grown 10-21 days, dependent upon the species and then sprayed postemergence with the test chemicals dissolved in a nonpytotoxic solvent.
(§3) Preemergence plantings were grown in fertilized Tama silt loam soil. These plantings are identical to those described in the postemergence section, with the exception of the corn planting having perlite covering the soil surface. These plantings were made the day of or the day before spraying the test chemicals dissolved in a nonphytotoxic solvent.
(§4) Treated plants and controls were maintained in the greenhouse for 2 to 4 weeks. Visual planting response ratings were made on a percentage scale of 0 to 100 in comparison with a control where 0=no injury, and 100=death.

LAMBSQUARTER = assay type: in vivo, Chenopodium album
VELVETLEAF = assay type: in vivo, Abutilon theophrasti
Procedure: as §1, §2, §3, §4

SMILES	plant response (REDROOT PIGWEED; POSTEMERGENCE 0250 GM/HA)	plant response (REDROOT PIGWEED; POSTEMERGENCE 0500 GM/HA)	plant response (REDROOT PIGWEED; PREEMERGENCE 0250 GM/HA)	plant response (REDROOT PIGWEED; PREEMERGENCE 0500 GM/HA)	plant response (COCKLEBUR; POSTEMERGENCE 0250 GM/HA)	plant response (COCKLEBUR; POSTEMERGENCE 0500 GM/HA)	plant response (COCKLEBUR; PREEMERGENCE 0250 GM/HA)	plant response (COCKLEBUR; PREEMERGENCE 0500 GM/HA)	plant response (WILLMS SOYBEANS; POSTEMERGENCE 0250 GM/HA)	plant response (WILLMS SOYBEANS; POSTEMERGENCE 0500 GM/HA)	plant response (WILLMS SOYBEANS; PREEMERGENCE 0250 GM/HA)	plant response (WILLMS SOYBEANS; PREEMERGENCE 0500 GM/HA)	plant response (LADY SMARTWEED; POSTEMERGENCE 0250 GM/HA)	plant response (LADY SMARTWEED; POSTEMERGENCE 0500 GM/HA)	plant response (LADY SMARTWEED; PREEMERGENCE 0250 GM/HA)	plant response (LADY SMARTWEED; PREEMERGENCE 0500 GM/HA)	plant response (LAMBSQUARTER; POSTEMERGENCE 0250 GM/HA)	plant response (LAMBSQUARTER; POSTEMERGENCE 0500 GM/HA)	plant response (LAMBSQUARTER; PREEMERGENCE 0250 GM/HA)	plant response (LAMBSQUARTER; PREEMERGENCE 0500 GM/HA)	further results
C=C(c1ccccc1Cl)C(O)(Cn1cncn1)c1ccc(Cl)cc1Cl (stereo not drawn) [Example 33, 2-(2,4-Dichlorophenyl)-3-(2-chlorophenyl)-1-(1H-1,2,4-triazol-1-yl)-3-buten-2-ol]	0%	0%	0%	0%	0%	0%	0%	0%	0%	0%	0%	0%	0%	0%	0%	0%	0%	0%	0%	0%	plant response (REDROOT PIGWEED; POSTEMERGENCE 1000 GM/HA): 0%; plant response (REDROOT PIGWEED; PREEMERGENCE 1000 GM/HA): 0%; plant response (COCKLEBUR; POSTEMERGENCE 1000 GM/HA): 0%; plant response (COCKLEBUR; PREEMERGENCE 1000 GM/HA): 0%; plant response (WILLMS SOYBEANS; POSTEMERGENCE 1000 GM/HA): 0%; plant response (WILLMS SOYBEANS; PREEMERGENCE 1000 GM/HA): 0%; plant response (LADY SMARTWEED; POSTEMERGENCE 1000 GM/HA): 0%; plant response (LADY SMARTWEED; PREEMERGENCE 1000 GM/HA): 0%; plant response (LAMBSQUARTER; POSTEMERGENCE 1000 GM/HA): 0%; plant response (LAMBSQUARTER; PREEMERGENCE 1000 GM/HA): 0%; plant response (VELVETLEAF; POSTEMERGENCE 0250 GM/HA): 0%; plant response (VELVETLEAF; POSTEMERGENCE 0500 GM/HA): 0%; plant response (VELVETLEAF; POSTEMERGENCE 1000 GM/HA): 0%; plant response (VELVETLEAF; PREEMERGENCE 0250 GM/HA): 0%; plant response (VELVETLEAF; PREEMERGENCE 0500 GM/HA): 0%; plant response (VELVETLEAF; PREEMERGENCE 1000 GM/HA): 0%
C=C(c1ccccc1Cl)C(O)(Cn1cncn1)c1ccc(F)cc1F (stereo not drawn) [Example 35]	30%	70%	50%	98%	0%	30%	0%	20%	10%	30%	0%	0%	50%	50%	50%	100%	0%	20%	60%	80%	plant response (REDROOT PIGWEED; PREEMERGENCE 0064 GM/HA): 0%; plant response (REDROOT PIGWEED; PREEMERGENCE 0125 GM/HA): 0%; plant response (COCKLEBUR; PREEMERGENCE 0064 GM/HA): 0%; plant response (COCKLEBUR; PREEMERGENCE 0125 GM/HA): 0%; plant response (WILLMS SOYBEANS; PREEMERGENCE 0064 GM/HA): 0%; plant response (WILLMS SOYBEANS; PREEMERGENCE 0125 GM/HA): 0%; plant response (LADY SMARTWEED; PREEMERGENCE 0064 GM/HA): 0%; plant response (LADY SMARTWEED; PREEMERGENCE 0125 GM/HA): 30%; plant response (LAMBSQUARTER; PREEMERGENCE 0064 GM/HA): 30%; plant response (LAMBSQUARTER; PREEMERGENCE 0125 GM/HA): 30%; plant response (VELVETLEAF; POSTEMERGENCE 0250 GM/HA): 60%; plant response (VELVETLEAF; POSTEMERGENCE 0500 GM/HA): 90%; plant response (VELVETLEAF; PREEMERGENCE 0064 GM/HA): 60%; plant response (VELVETLEAF; PREEMERGENCE 0125 GM/HA): 70%; plant response (VELVETLEAF; PREEMERGENCE 0250 GM/HA): 100%; plant response (VELVETLEAF; PREEMERGENCE 0500 GM/HA): 100%
